Measured values as given in patent US20160113905A1, “Polymer composition and polymer material” (INDUSTRIAL TECHNOLOGY RESEARCH INSTITUTE, priority 2012, published 2016).
Values joined by “and” are separate entries in the source; they are usually repeats but may differ in a detail not shown here. Equal entries are not always repeated.

biological target: T1, matrix metalloproteinase-9 (Homo sapiens, UniProt P14780); experiment: not given
T1 sequence (P14780 107-707 limits assumed, species assumed): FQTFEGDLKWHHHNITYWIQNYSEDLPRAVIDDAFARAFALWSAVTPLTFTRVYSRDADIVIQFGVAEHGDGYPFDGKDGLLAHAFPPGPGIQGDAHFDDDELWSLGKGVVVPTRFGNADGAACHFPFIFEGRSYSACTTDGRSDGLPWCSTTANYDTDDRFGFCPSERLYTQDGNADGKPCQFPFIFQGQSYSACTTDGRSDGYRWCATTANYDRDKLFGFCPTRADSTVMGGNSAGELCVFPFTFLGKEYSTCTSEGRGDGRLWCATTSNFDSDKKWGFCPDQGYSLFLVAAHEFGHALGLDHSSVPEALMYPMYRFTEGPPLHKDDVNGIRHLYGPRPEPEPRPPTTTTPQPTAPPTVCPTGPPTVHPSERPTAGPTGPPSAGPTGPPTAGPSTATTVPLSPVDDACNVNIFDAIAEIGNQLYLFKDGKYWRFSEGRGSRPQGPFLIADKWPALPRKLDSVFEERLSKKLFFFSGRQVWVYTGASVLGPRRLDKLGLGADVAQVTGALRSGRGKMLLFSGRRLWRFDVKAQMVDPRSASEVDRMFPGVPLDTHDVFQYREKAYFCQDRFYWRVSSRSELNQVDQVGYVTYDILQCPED

Compound | inhibition
histidine grafted-hydroxypropyl methylcellulose derivative [Lot 6] | 42.4% and 37.3%
histidine grafted-poly(ethylene vinyl-co-alcohol) derivative [Lot 3] | 43.7%
histidine grafted-hydroxypropyl methylcellulose derivative [Lot 7] | 36.4%
histidine grafted-hydroxypropyl methylcellulose derivative [Lot 5] | 33.2%
CC(C)(C)OC(=O)N[C@@H](Cc1c[nH]cn1)C(=O)O [BocHis, Boc-histidine, reference compound] | 76.8%
histidine grafted-poly(ethylene vinyl-co-alcohol) derivative [Lot 4] | 38.2%
histidine grafted-polyvinyl alcohol derivative [Lot 2] | 41%

biological target: T1, matrix metalloproteinase-9; experiment: Inhibition test of matrix metalloproteinase-9 activity (fluorogenic substrate, activated pro-MMP-9)
Experimental: Step 1: Activation of Pro-Matrix Metalloproteinase-9
100 nM APMA (final concentration 1 M) as added to a 10 μg/ml of pro-matrix metalloproteinase-9 solution (R&D), and reacted in a 37° C. incubator for 2 hours to convert pro matrix metalloproteinase-9 to activated pro-matrix metalloproteinase-9
The activated pro-matrix metalloproteinase-9 was diluted with matrix metalloproteinase-9 activity analysis buffer (50 mM Tris, 10 mM CaCl2, 150 mM NaCl, 0.05% Brij-35(w/v), pH 7.5) to a concentration of 10 ng/ml. Activated pro-matrix metalloproteinase-9 was added to each test sample and placed in a 37° C. incubator for reaction for 2 or 24 hours. The negative control group contained no activated pro-matrix metalloproteinase-9 solution to test the response of the sample, and positive control added metalloproteinase-9 activity inhibitor, 1,10-Phenanthroline (1,10-PT) (final concentration: 0.1 mM), to the activated pro-matrix metalloproteinase-9 solution.
Step 3: Analysis for Matrix Metalloproteinase-9
The activated pro-matrix metalloproteinase-9 solution after being reacted with the material was taken in a 96-well black plate. Equal volume of substrate for matrix metalloproteinase-9 was added to the 96-well black plate and reacted in a 37° C. incubator for 0.5-1 hour, and then the fluorescence (Ex/Em=320/405 nm) of the reaction was determined by a high sensitivity fluorescence reader (Flexstation3).

IC50 [mM] | Compound
10.3 | CC(C)(C)OC(=O)N[C@@H](Cc1c[nH]cn1)C(=O)O [BocHis, Boc-histidine, reference compound]

biological target: T1, matrix metalloproteinase-9; experiment: not given; remark: another data set of the same source

inhibition | Compound
26.2% and 22.9% | histidine grafted-poly(ethylene vinyl-co-alcohol) derivative [EVOH-g-BocHis]
